In patent US20110112463A1, “COMPOSITIONS AND METHODS FOR TREATING A NEURONAL INJURY OR NEURONAL DISORDERS” (priority 2009, published 2011):
Entries after “also recorded” stand apart in the source; their conditions may differ.

Tested on: NMDA receptors
Experiment: NMDA receptor blockade with MK-801 before intermittent photostimulation of ChR2 animals, diaphragmatic EMG
Type: in vivo, Sprague Dawley rats
Source text: Four days after C2 hemisection and/or virus injection, the animals were anesthetized as above and prepared for light treatment and physiological recordings. In a room where all light was eliminated except for that needed to accomplish the surgical procedures, approximately an eight cm incision was made at the base of the ribcage to expose the abdominal surface of the diaphragm. Bipolar electrodes, connected to an amplifier and data acquisition set-up (CED 1401/Spike2 Data Analysis Computer Interface, Cambridge Electronic Design), were inserted into both left and right hemidiaphragms to record diaphragmatic activity. After this, the cervical area of the spinal cord was reopened again for exposure to photostimulation at a wavelength of 475 nm, i.e., blue light. The light source was a portable unit capable of producing light at various wavelengths through a fiber optic cable (Model Lambda DG-4, Sutter Instrument). Diaphragmatic motor activity was recorded before, during, and after stimulation. During recording, the animals were placed on a circulating warm water blanket to maintain body temperature. The initial protocol used for photostimulation included sustained exposure (1 min) of the C3-C6 spinal cord from the light source, as well as, intermittent exposure to light at about once per second for 1 min. […] This protocol was adapted from the long-term facilitation induction protocol of 5 min normoxia followed by 5 min hypoxia (Fuller et al., 2003; Golder and Mitchell, 2005). The intermittent stimulation consisted of light exposure at 0.5 Hz, with each flash of light 1 s long.
To block NMDA receptors, 500 μl of 10 μM MK-801 (Sigma), a noncompetitive NMDA receptor antagonist, diluted in PBS, was applied to the exposed spinal cord. MK-801 was administered after 5 min of baseline recording. Recording with MK-801 continued for 5 more minutes before intermittent photostimulation and thereafter as described above.
After recording, the raw diaphragmatic EMG signal was rectified and integrated using Spike2 software. Frequency was determined by counting total breaths for 5 min before and after photostimulation. Peak amplitude and burst duration of inspiratory bursts were measured through Spike2, for at least 25 breaths before and after stimulation. Poststimulation analyses of ChR2 animals were made during regular patterned respiratory related diaphragmatic EMG activity. All values were standardized to prestimulation measures. Statistical analysis was performed using ANOVA and Tukey's post hoc analysis. All values with a p value <0.05 were considered significant. All error bars indicate SEs.

C[C@]12N[C@H](Cc3ccccc31)c1ccccc12 [MK-801]
effect on light-induced change in diaphragmatic EMG activity (500 μl of 10 μM MK-801 in PBS on exposed C3-C6 spinal cord, ipsilateral and contralateral): failed to elicit any kind of change in diaphragmatic EMG activity; also recorded: eliminated cycling of increasing diaphragmatic EMG activity | animals in which intermittent photostimulation failed to elicit any change in EMG activity (500 μl of 10 μM MK-801 on exposed C3-C6 spinal cord): four of six | frequency of breaths before and after stimulation (FIG. 4A): no change | effect on photostimulation-induced increase of peak EMG amplitude during inspiratory bursts (FIG. 4B, brought back to control levels): abolished | effect on photostimulation-induced increase in duration of EMG inspiratory bursts (FIG. 4C, brought back to control levels): attenuated
